DBAASP
Converted amounts (≈) assume the structure as drawn. “And” between values parts separate entries of the source, which are not always exact repeats. Equal values may be shown once. Values belong to the compound of their own block, whether it stands above or below them.

Assays:
Experiment in all cases: ≥ marks a high value that may be exact or a test limit, other limits are often not marked, values filed in µg/mL are converted to µM
[1] = test system: Pseudomonas fluorescens
[2] = test system: Pseudomonas aeruginosa M1426
[3] = test system: Pseudomonas aeruginosa M76
[4] = test system: Achromobacter xylosoxidans
[5] = test system: Candida albicans
[6] = test system: Escherichia coli UB1005
[7] = test system: Pseudomonas aeruginosa
[8] = test system: Pseudomonas aeruginosa M917
[9] = test system: Pseudomonas aeruginosa R70
[10] = test system: Ralstonia pickettii
[11] = test system: Pseudomonas aeruginosa M1251
[12] = test system: Salmonella enterica serovar Typhimurium
[13] = test system: Pseudomonas aeruginosa PAO1
[14] = test system: Stenotrophomonas maltophilia
[15] = test system: Staphylococcus aureus
[16] = test system: Enterococcus faecium CCARM 5029
[17] = test system: Bacillus subtilis KCCM 11495
[18] = test system: Enterococcus faecium CCARM 5028
[19] = test system: Escherichia coli KCCM 11569
[20] = test system: Malassezia sympodialis ATCC 42132
[21] = test system: Candida albicans CCARM 14022
[22] = test system: Candida albicans CCARM 14020
[23] = test system: Candida albicans SC5314
[24] = test system: Candida albicans ATCC 64550
[25] = test system: Staphylococcus aureus C623
[26] = test system: Pseudomonas aeruginosa PAO1 H103
[27] = test system: Staphylococcus aureus C622
[28] = test system: Staphylococcus aureus ATCC 25923
[29] = test system: Pseudomonas aeruginosa 9
[30] = test system: Klebsiella pneumoniae ESBL 61962
[31] = test system: Pseudomonas aeruginosa H1030
[32] = test system: Enterococcus faecalis ATCC 29212
[33] = test system: Pseudomonas aeruginosa 198
[34] = test system: Enterococcus faecium t62764
[35] = test system: Enterobacter cloacae 218R
[36] = test system: Enterococcus faecium mic80
[37] = test system: Escherichia coli ESBL 63103
[38] = test system: Acinetobacter baumannii ATCC 17978
[39] = test system: Pseudomonas aeruginosa H1001
[40] = test system: Enterococcus faecalis f43559
[41] = test system: Klebsiella pneumoniae ESBL 63575
[42] = test system: Bacillus subtilis C626
[43] = test system: Stenotrophomonas maltophilia ATCC 13637
[44] = test system: Escherichia coli ESBL 64771
[45] = test system: Escherichia coli O157:H7
[46] = test system: Enterococcus faecalis W61950
[47] = test system: Pseudomonas aeruginosa H1027
[48] = test system: Pseudomonas aeruginosa 213
[49] = test system: Pseudomonas aeruginosa LES400

- MIC [1]: 5.18 µM (≈ 8 µg/mL)
- MIC [2]: 10.4 µM (≈ 16 µg/mL)
- MIC [3]: 2.59 µM (≈ 4 µg/mL)
- MIC [4]: 5.18 µM (≈ 8 µg/mL)
- MIC [5]: 5.18 µM (≈ 8 µg/mL)
- MIC [6]: 2.59 µM (≈ 4 µg/mL)
- MIC [7]: 5.18 µM (≈ 8 µg/mL)
- MIC [8]: 10.4 µM (≈ 16 µg/mL)
- MIC [9]: 1.29 µM (≈ 2 µg/mL)
- MIC [10]: 2.59 µM (≈ 4 µg/mL)
- MIC [11]: 1.29 µM (≈ 2 µg/mL)
- MIC [12]: 2.59 µM (≈ 4 µg/mL)
- MIC [13]: 2.59 µM (≈ 4 µg/mL)
- MIC [14]: 1.29 µM (≈ 2 µg/mL)
- MIC [15]: 10.4 µM (≈ 16 µg/mL)
SMILES: CC(C)C[C@H](NC(=O)[C@H](CC(C)C)NC(=O)[C@H](CCCCN)NC(=O)[C@H](C)NC(=O)[C@H](CC(C)C)NC(=O)[C@H](CCCCN)NC(=O)[C@H](CCCCN)NC(=O)[C@H](CC(C)C)NC(=O)[C@H](C)NC(=O)[C@H](CCCCN)NC(=O)[C@H](CCCCN)NC(=O)[C@H](Cc1ccc(O)cc1)NC(=O)[C@@H](N)CCCCN)C(N)=O [KYKKALKKLAKLL]

- MIC [16]: 0.74 µM and 1.48 µM
- MIC [17]: 2.96 µM (≈ 5.65 µg/mL)
- MIC [18]: 0.74 µM and 1.48 µM
- MIC [19]: 1.48 µM (≈ 2.83 µg/mL)
SMILES: CC(C)C[C@H](NC(=O)CNC(=O)[C@H](CCCCN)NC(=O)[C@H](CCCCN)NC(=O)[C@H](CC(C)C)NC(=O)[C@H](CC(C)C)NC(=O)[C@H](C)NC(=O)[C@H](CC(N)=O)NC(=O)[C@H](CC(C)C)NC(=O)[C@@H](N)Cc1c[nH]c2ccccc12)C(=O)N[C@@H](CC(N)=O)C(=O)N[C@@H](CS)C(=O)N[C@@H](C)C(=O)N[C@@H](CCCCN)C(=O)NCC(=O)N[C@H](C(=O)N[C@@H](CC(C)C)C(=O)N[C@@H](C)C(N)=O)C(C)C [WLNALLKKGLNCAKGVLA]

- MIC [20]: 5.01 µM (≈ 15.2 µg/mL)
- MIC [21]: 3.73 µM and 10.5 µM
- MIC [22]: 3.73 µM and 10.5 µM
- MIC [23]: 3.73 µM and 10.5 µM
SMILES: C[C@H](NC(=O)[C@H](Cc1cnc[nH]1)NC(=O)[C@H](CO)NC(=O)[C@@H](N)CC(=O)O)C(=O)N[C@@H](CCCCN)C(=O)N[C@@H](CCCN=C(N)N)C(=O)N[C@@H](Cc1cnc[nH]1)C(=O)N[C@@H](Cc1cnc[nH]1)C(=O)NCC(=O)N[C@@H](Cc1ccc(O)cc1)C(=O)N[C@@H](CCCCN)C(=O)N[C@@H](CCCN=C(N)N)C(=O)N[C@@H](CCCCN)C(=O)N[C@@H](Cc1ccccc1)C(=O)N[C@@H](Cc1cnc[nH]1)C(=O)N[C@@H](CCC(=O)O)C(=O)N[C@@H](CCCCN)C(=O)N[C@@H](Cc1cnc[nH]1)C(=O)N[C@@H](Cc1cnc[nH]1)C(=O)N[C@@H](CO)C(=O)N[C@@H](Cc1cnc[nH]1)C(=O)N[C@@H](CCCN=C(N)N)C(=O)NCC(=O)N[C@@H](Cc1ccc(O)cc1)C(N)=O [DSHAKRHHGYKRKFHEKHHSHRGY]

- MIC [24]: ≥ 100 µM
- MIC [25]: 1.5 µM (≈ 2.17 µg/mL)
- MIC [26]: 0.8 µM (≈ 1.16 µg/mL)
- MIC [27]: 5 µM (≈ 7.22 µg/mL)
- MIC [28]: 3 µM (≈ 4.33 µg/mL)
- MIC [29]: 5.9 µM (≈ 8.52 µg/mL)
- MIC [30]: 25 µM (≈ 36.1 µg/mL)
- MIC [31]: 3 µM (≈ 4.33 µg/mL)
- MIC [32]: 12 µM (≈ 17.3 µg/mL)
- MIC [33]: 1.5 µM (≈ 2.17 µg/mL)
- MIC [34]: 1.5 µM (≈ 2.17 µg/mL)
- MIC [35]: 3 µM (≈ 4.33 µg/mL)
- MIC [36]: 3.1 µM (≈ 4.48 µg/mL)
- MIC [37]: 1.5 µM (≈ 2.17 µg/mL)
- MIC [38]: 5 µM (≈ 7.22 µg/mL)
- MIC [39]: 0.554 µM (≈ 0.8 µg/mL)
- MIC [40]: ≥ 49 µM
- MIC [41]: 6.2 µM (≈ 8.96 µg/mL)
- MIC [42]: 20 µM (≈ 28.9 µg/mL)
- MIC [43]: 0.4 µM (≈ 0.578 µg/mL)
- MIC [44]: 1.5 µM (≈ 2.17 µg/mL)
- MIC [45]: 1.25 µM (≈ 1.81 µg/mL)
- MIC [46]: ≥ 99 µM
- MIC [47]: 0.8 µM (≈ 1.16 µg/mL)
- MIC [48]: 3 µM (≈ 4.33 µg/mL)
- MIC [49]: 5.9 µM (≈ 8.52 µg/mL)
SMILES: CC[C@H](C)[C@H](NC(=O)[C@H](Cc1c[nH]c2ccccc12)NC(=O)[C@H](CCCCN)NC(=O)[C@H](Cc1c[nH]c2ccccc12)NC(=O)[C@H](Cc1c[nH]c2ccccc12)NC(=O)[C@H](CCCNC(=N)N)NC(=O)[C@@H](N)CCCCN)C(=O)N[C@@H](CCCNC(=N)N)C(=O)N[C@@H](Cc1c[nH]c2ccccc12)C(=O)O [KRWWKWIRW]
